Structures can show the parent of a compound that is named as a salt.
Target: T1, recombinant human ALX receptor (Homo sapiens, UniProt P25090)
T1 construct: expressed in transfected cells; host or cells: HEK293 (HEK293-hALXR-Gα16)
T1 sequence (P25090 1-351): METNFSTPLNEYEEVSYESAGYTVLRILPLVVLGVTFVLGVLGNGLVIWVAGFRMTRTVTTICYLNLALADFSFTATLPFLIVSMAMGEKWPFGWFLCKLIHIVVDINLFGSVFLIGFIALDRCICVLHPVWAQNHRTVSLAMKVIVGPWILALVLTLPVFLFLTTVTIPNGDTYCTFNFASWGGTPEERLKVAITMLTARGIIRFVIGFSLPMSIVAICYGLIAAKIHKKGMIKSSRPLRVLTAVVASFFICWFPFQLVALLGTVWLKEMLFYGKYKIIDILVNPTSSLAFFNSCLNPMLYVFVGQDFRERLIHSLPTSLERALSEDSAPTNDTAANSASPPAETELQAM
Test: Intracellular calcium measurements (FLIPR), ALX receptor agonistic activity
Assay type: cell-based
Conditions: HEK293-hALXR-Gα16 cells, Fluo-4 calcium signal, normalized to WKYMVm 10 nM
In short: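 HEK293 cells co-expressing human ALX receptor and Gα16 were loaded with 1 μM Fluo-4 AM for 60 min at 37° C., then exposed to serially diluted compounds on FLIPR Tetra. Peak fluorescence above baseline (ex 488/em 540 nm) was normalized to 10 nM WKYMVm as high control.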

Row | SMILES | EC50 [µM]
1 | COc1ccc(CC(NC(=O)N[C@H]2CC[C@H](O)CC2)c2nc3ccccc3[nH]2)c(F)c1 (single isomer, unassigned; ent-2) [Example 310, 1-(1-(1H-Benzo[d]imidazol-2-yl)-2-(2-fluoro-4-methoxyphenyl)ethyl)-3-(trans-4-hydroxycyclohexyl)urea (ent-2)] | 0.0033
2 | COc1ccc(CC(NC(=O)Nc2ccnn2Cc2ccccc2)c2nc3ccccc3[nH]2)cc1 (stereo not drawn) [Example 415, 1-(1-(1H-benzo[d]imidazol-2-yl)-2-(4-methoxyphenyl)ethyl)-3-(1-benzyl-1H-pyrazol-5-yl)urea] | 0.101
3 | COc1ccc(CC(NC(=O)NCc2cc(C3CC3)on2)c2nc3ccccc3[nH]2)cc1 (stereo not drawn) [Example 380, 1-(1-(1H-Benzo[d]imidazol-2-yl)-2-(4-methoxyphenyl)ethyl)-3-((5-cyclopropylisoxazol-3-yl)methyl)urea] | 1.09
4 | COc1ccc(C[C@@H](NC(=O)NC(C)(C)c2ccc(Cl)cc2)c2nc3ccccc3[nH]2)cc1 [Example 352, (R)-1-(1-(1H-Benzo[d]imidazol-2-yl)-2-(4-methoxyphenyl)ethyl)-3-(2-(4-chlorophenyl)propan-2-yl)urea] | 0.372
5 | COc1ccc(C[C@@H](NC(=O)NC2CCN(C(C)=O)CC2)c2nc3ccccc3[nH]2)cc1 [Example 138, (R)-1-(1-(1H-Benzo[d]imidazol-2-yl)-2-(4-methoxyphenyl)ethyl)-3-(1-acetylpiperidin-4-yl)urea] | 0.789
6 | COc1ccc(CC(NC(=O)NCC2CCCC2)c2nc3ccccc3[nH]2)cc1 (stereo not drawn) [Example 52, 1-(1-(1H-Benzo[d]imidazol-2-yl)-2-(4-methoxyphenyl)ethyl)-3-(cyclopentylmethyl)urea] | 0.221
7 | COc1ccc(C[C@@H](NC(=O)N[C@H]2CC[C@H](O)C2)c2nc3ccccc3[nH]2)cc1 (relative stereo) [Example 172, 1-((R)-1-(1H-Benzo[d]imidazol-2-yl)-2-(4-methoxyphenyl)ethyl)-3-((1 S*,3S*)-3-hydroxycyclopentyl)urea] | 0.015
8 | COc1cc(F)c(CC(NC(=O)N[C@H]2CC[C@H](O)CC2)c2nc3cc(F)ccc3[nH]2)c(F)c1 (single isomer, unassigned; ent-1) [Example 366, 1-(2-(2,6-Difluoro-4-methoxyphenyl)-1-(5-fluoro-1H-benzo[d]imidazol-2-yl)ethyl)-3-(trans-4-hydroxycyclohexyl)urea (ent-1)] | 0.0004
9 | COc1ccc(C[C@@H](NC(=O)NC2CC(C)(C)NC(C)(C)C2)c2nc3ccc(C#N)cc3[nH]2)cc1 [Example 153, (R)-1-(1-(6-Cyano-1H-benzo[d]imidazol-2-yl)-2-(4-methoxyphenyl)ethyl)-3-(2,2,6,6-tetramethylpiperidin-4-yl)urea] | 0.0087
10 | COc1ccc(C[C@@H](NC(=O)NC2CC(C)(C)N(C)C(C)(C)C2)c2nc3ccccc3[nH]2)cc1 [Example 116, (R)-1-(1-(1H-Benzo[d]imidazol-2-yl)-2-(4-methoxyphenyl)ethyl)-3-(1,2,2,6,6-pentamethylpiperidin-4-yl)urea] | 0.063
11 | COc1ccc(C[C@@H](NC(=O)NCCc2ccccc2C)c2nc3ccccc3[nH]2)cc1 [Example 63, (R)-1-(1-(1H-Benzo[d]imidazol-2-yl)-2-(4-methoxyphenyl)ethyl)-3-(2-methylphenethyl)urea hydrochloride] | 0.105
12 | COc1ccc(C[C@@H](NC(=O)N[C@H](C)[C@@H](O)c2ccccc2)c2nc3ccccc3[nH]2)cc1 [Example 209, 1-((R)-1-(1H-Benzo[d]imidazol-2-yl)-2-(4-methoxyphenyl)ethyl)-3-((1S,2R)-1-hydroxy-1-phenylpropan-2-yl)urea] | 0.0015
13 | COc1ccc(C[C@@H](NC(=O)N[C@H]2CC[C@H](C(=O)OC)CC2)c2nc3ccccc3[nH]2)cc1 [Example 224, trans-Methyl 4-(3-((R)-1-(1H-benzo[d]imidazol-2-yl)-2-(4-methoxyphenyl)ethyl)ureido)cyclohexanecarboxylate] | 0.0082
14 | COc1ccc(C[C@@H](NC(=O)N[C@H]2CC[C@](C)(O)CC2)c2nc3ccccc3[nH]2)cc1 [Example 173, 1-((R)-1-(1H-Benzo[d]imidazol-2-yl)-2-(4-methoxyphenyl)ethyl)-3-(trans-4-hydroxy-4-methylcyclohexyl)urea] | 0.0031
15 | COc1ccc(CC(NC(=O)NCc2cnc3ccccn23)c2nc3ccccc3[nH]2)cc1 (stereo not drawn) [Example 51, 1-(1-(1H-Benzo[d]imidazol-2-yl)-2-(4-methoxyphenyl)ethyl)-3-(imidazo[1,2-a]pyridin-3-ylmethyl)urea] | 0.99
16 | O=C(N[C@H](Cc1ccc(Br)cc1)c1nc2ccc(F)cc2[nH]1)N[C@H]1CC[C@H](O)CC1 [Example 133, 1-((R)-2-(4-Bromophenyl)-1-(6-fluoro-1H-benzo[d]imidazol-2-yl)ethyl)-3-(trans-4-hydroxycyclohexyl)urea] | 0.0034

Continued by falling EC50, values first:

Row | EC50 [µM] | SMILES
17 | 0.693 | N#Cc1ccc(CC(NC(=O)N[C@H]2CC[C@H](O)CC2)c2nc3ccccc3[nH]2)cc1 (relative stereo) [Example 78, 1-(1-(1H-Benzo[d]imidazol-2-yl)-2-(4-cyanophenyl)ethyl)-3-(trans-4-hydroxycyclohexyl)urea]
18 | 0.601 | COc1ccc(C[C@@H](NC(=O)N[C@H]2CCNC2)c2nc3ccccc3[nH]2)cc1 [Example 126, 1-((R)-1-(1H-Benzo[d]imidazol-2-yl)-2-(4-methoxyphenyl)ethyl)-3-((S)-pyrrolidin-3-yl)urea]
19 | 0.493 | COc1ccc(C[C@@H](NC(=O)NCC2CCN(C)CC2)c2nc3ccccc3[nH]2)cc1 [Example 147, (R)-1-(1-(1H-Benzo[d]imidazol-2-yl)-2-(4-methoxyphenyl)ethyl)-3-((1-methylpiperidin-4-yl)methyl)urea]
20 | 0.415 | COc1ccc(C[C@@H](NC(=O)NCCc2ccccc2)c2nc3ccccc3[nH]2)cc1 [Example 67, (R)-1-(1-(1H-Benzo[d]imidazol-2-yl)-2-(4-methoxyphenyl)ethyl)-3-phenethylurea]
21 | 0.374 | COc1ccc(CC(NC(=O)N[C@H]2CC[C@H](O)CC2)c2nc3ncncc3[nH]2)cc1 (relative stereo) [Example 426, 1-(trans-4-hydroxycyclohexyl)-3-(2-(4-methoxyphenyl)-1-(7H-purin-8-yl)ethyl)urea]
22 | 0.137 | COc1ccc(C[C@@H](NC(=O)NCCc2ccc(F)cc2)c2nc3ccccc3[nH]2)cc1 [Example 55, (R)-1-(1-(1H-Benzo[d]imidazol-2-yl)-2-(4-methoxyphenyl)ethyl)-3-(4-fluorophenethyl)urea hydrochloride]
23 | 0.12 | COc1ccc(C[C@@H](NC(=O)N[C@@H]2CCCC[C@H]2C(N)=O)c2nc3ccccc3[nH]2)cc1 (relative stereo) [Example 163, (1R*,2R*)-2-(3-((R)-1-(1H-Benzo[d]imidazol-2-yl)-2-(4-methoxyphenyl)ethyl)ureido)cyclohexanecarboxamide]
24 | 0.109 | COc1ccc(C[C@@H](NC(=O)NCCc2ccccc2Cl)c2nc3ccccc3[nH]2)cc1 [Example 56, (R)-1-(1-(1H-Benzo[d]imidazol-2-yl)-2-(4-methoxyphenyl)ethyl)-3-(2-chlorophenethyl)urea hydrochloride]
25 | 0.047 | COc1ccc(C[C@@H](NC(=O)NC2CCCCC2)c2nc3ccccc3[nH]2)cc1 [Example 17, (R)-1-(1-(1H-Benzo[d]imidazol-2-yl)-2-(4-methoxyphenyl)ethyl)-3-cyclohexylurea hydrochloride]
26 | 0.019 | O=C(N[C@H](Cc1ccc(C(F)(F)F)cc1)c1nc2ccccc2[nH]1)N[C@H]1CC[C@H](O)CC1 [Example 190, 1-((R)-1-(1H-Benzo[d]imidazol-2-yl)-2-(4-(trifluoromethyl)phenyl)ethyl)-3-(trans-4-hydroxycyclohexyl)urea]
27 | 0.01 | COc1cc(F)c(CC(NC(=O)N[C@H]2CC[C@H](O)CC2)c2nc3ccccc3[nH]2)cc1F (relative stereo) [Example 247, 1-(1-(1H-Benzo[d]imidazol-2-yl)-2-(2,5-difluoro-4-methoxyphenyl)ethyl)-3-(trans-4-hydroxycyclohexyl)urea]
28 | 0.0066 | COc1ccc(CC(NC(=O)N[C@H]2CC[C@](C)(O)CC2)c2nc3ccccc3[nH]2)cc1F (relative stereo) [Example 226, 1-(1-(1H-Benzo[d]imidazol-2-yl)-2-(3-fluoro-4-methoxyphenyl)ethyl)-3-(trans-4-hydroxy-4-methylcyclohexyl)urea]
29 | 0.0005 | COc1cc(F)c(CC(NC(=O)NC23CCC(O)(CC2)CC3)c2nc3ccccc3[nH]2)c(F)c1 (single isomer, unassigned; ent-1) [Example 259, 1-(1-(1H-Benzo[d]imidazol-2-yl)-2-(2,6-difluoro-4-methoxyphenyl)ethyl)-3-(4-hydroxybicyclo[2.2.2]octan-1-yl)urea (ent-1)]
30 | 0.0004 | COc1ccc(CC(NC(=O)N[C@H]2CC[C@H](O)CC2)c2nc3ccc(F)cc3[nH]2)c(F)c1 (single isomer, unassigned; ent-1) [Example 260, 1-(1-(6-Fluoro-1H-benzo[d]imidazol-2-yl)-2-(2-fluoro-4-methoxyphenyl)ethyl)-3-(trans-4-hydroxycyclohexyl)urea (ent-1)]
